B1: 99 (peptide)
chain: TAKSKKFPSYTATYQFGGKKKIITITRIITIITTIDGGCGETYQSRVTHPHLPRALMRSTTKC

System: human IgE myeloma protein
Assay: Human IgE ELISA of guinea pig immune sera
Parameters: species or system guinea pigs
Details: in vivo
Protocol: These peptide immunogens were used to immunize groups of 3 guinea pigs using 100 μg/dose, formulated in CFA at week 0, IFA at weeks 3 and 6, and administered intramuscularly. For comparison, a group of two animals were immunized with a peptide/KLH carrier protein conjugate at 200 μg/dose, similarly administered. ELISA results of serum samples collected at week 8 are shown. In the ELISA a human IgE myeloma protein (American Biosystem, Inc. cat no. A113) was used as the solid-phase immunoadsorbant. The procedure used was identical to the peptide-based ELISAs described previously, except IgE myeloma was used as the solid phase immunoadsorbant. […] The inclusion of the Inv domain sequence (SEQ ID NO:78) augmented the immunogenicity, as shown by the enhanced immunogenicity of SEQ ID NO:99 over SEQ ID NO:98.

Molecule | Log10 ELISA (average for animals of the group) [Log10] | No. responding
98 (KKKIITITRIITIITTIDGGCGETYQSRVTHPHLPRALMRSTTKC) [compound 98] | 2.35 | 3/3
B1 | 3.28 | 3/3
